Test systems include 786-0; CCRF-CEM; HCC 2998; HCT-15; HL-60; HOP-92; KM12; M14; MCF7; MOLT-4; Malme-3M; SK-MEL-5; SNB-19; SNB-75; TK-10; LOX IMVI; NCI-H460; SF-295; SF-539.
Holding throughout (assay): NCI tumour cell line growth inhibition, 48 h

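The compound was tested at five concentrations on cells cultured in 96-well plates, with a 48-hour exposure period. The concentration for 50% growth inhibition is given as GI50.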 The source made the active and inactive calls. Rule as the data show it: active = GI50 up to about 1.1 µM and inactive = higher. Where a SMILES comes first, the peptide text is derived from it. The star is where a group is joined. Cbz = O=C(OCc1ccccc1)*; Boc = CC(C)(C)OC(=O)*; Bn = c1ccc(C*)cc1

For `CC(C)(C)OC(=O)NC(Cc1ccc(OCc2ccccc2)cc1)C(=O)NC(CCCCNC(=O)OCc1ccccc1)C(=O)O` (configuration not stated) (Boc-Tyr(Bn)-Lys(Cbz)-OH; configuration not given here), the GI50 in the experiment on 786-0 is 54.1 µM (inactive); in the experiment on CCRF-CEM, > 100 µM (inactive); with HCC 2998, 35.3 µM (inactive); in the experiment with HCT-15, greater than 10 µM; in the experiment on HL-60, 34.7 µM (inactive); with HOP-92, 16.4 µM (inactive). Further, the GI50 is 28.2 µM (inactive) with KM12; 2.72 µM (inactive) in the experiment with M14; 34.6 µM (inactive) in the experiment with MCF7; 28 µM (inactive) with MOLT-4; 94.2 µM (inactive) in the experiment with Malme-3M; 40.6 µM (inactive) in the experiment on SK-MEL-5. Further, the GI50 with SNB-19 is 27.3 µM (inactive); in the experiment on SNB-75, > 100 µM (inactive); in the experiment with TK-10 it was 67.3 µM (inactive).

For `COC(=O)/C=C/c1ccc(OP(=O)(O)O)c(OC)c1`, the GI50 in the experiment on 786-0 is > 100 µM (inactive); in the experiment with CCRF-CEM, > 100 µM (inactive); in the experiment on HCC 2998, > 100 µM (inactive); with HCT-15 it was greater than 100 µM; in the experiment with HOP-92, > 100 µM (inactive); with KM12, > 100 µM (inactive). For the same compound, the GI50 with LOX IMVI, in the experiment with M14, in the experiment with MCF7, in the experiment on MOLT-4, with Malme-3M and in the experiment on NCI-H460 was > 100 µM (inactive) in each case. Also, the GI50 with SF-295, with SF-539, in the experiment on SK-MEL-5, in the experiment on SNB-19, in the experiment on SNB-75 and in the experiment on TK-10 was > 100 µM (inactive) each time.

Take `O=C(CCCC(=O)N1CC(CCl)c2ccc([N+](=O)[O-])cc21)N1CC(CCl)c2ccc([N+](=O)[O-])cc21` (configuration not stated): the GI50 is > 100 µM (inactive) with 786-0; > 100 µM (inactive) in the experiment with CCRF-CEM; 63.8 µM (inactive) with HCC 2998; greater than 100 µM in the experiment with HCT-15; > 100 µM (inactive) in the experiment with HL-60; > 100 µM (inactive) with HOP-92. Besides, the GI50 in the experiment on LOX IMVI was > 100 µM (inactive); with M14, > 100 µM (inactive); with MCF7, > 100 µM (inactive); in the experiment with MOLT-4 it was > 100 µM (inactive); in the experiment on NCI-H460, 38.4 µM (inactive); in the experiment on SF-295, > 100 µM (inactive). Besides, the GI50 is > 100 µM (inactive) in the experiment with SF-539, 97.9 µM (inactive) in the experiment with SK-MEL-5, > 100 µM (inactive) in the experiment on SNB-19 and > 100 µM (inactive) with TK-10.

As for `O/N=C1/C2CC3CC1(c1ccccc1)CC(/C3=N/O)/C2=N\O` (configuration not stated), the GI50 with 786-0 was > 100 µM (inactive); with CCRF-CEM, > 100 µM (inactive); in the experiment with HCC 2998, > 100 µM (inactive); in the experiment with HCT-15, greater than 100 µM; in the experiment on HL-60 it was > 100 µM (inactive); in the experiment on KM12, > 100 µM (inactive). Also, the GI50 with LOX IMVI, in the experiment with M14, with MCF7, in the experiment on MOLT-4, in the experiment with Malme-3M and in the experiment with NCI-H460 was > 100 µM (inactive) each time. For the same compound, the GI50 in the experiment with SF-295, in the experiment with SF-539, in the experiment with SK-MEL-5, with SNB-19, in the experiment on SNB-75 and in the experiment on TK-10 was > 100 µM (inactive) in each case.
